We go through 76 compounds from a melting point compilation (Tetko et al.).

With `OCc1c(Br)c(Br)c(Br)c(Br)c1Br`, the melting point (in general, the temperature of the solid-liquid transition) was 264 to 265 °C.

For `Nc1ccccc1NC1CCN(Cc2ccccc2)CC1`, the melting point lay within 111 to 112 °C.

`COc1nccnc1NS(=O)(=O)c1ccc(N)cc1` gave a melting point of 176 °C.

In turn, `CC(C(=O)O)N1C(=O)c2ccccc2C1=O` (stereo unspecified) came in with a melting point of 163 °C.

The compound `O=C(O)C12CC3CC(CC(Br)(C3)C1)C2` returned a melting point of 147 to 148 °C.

Regarding `NS(=O)(=O)c1ccc(SCCO)c(F)c1`, the melting point was 110 °C.

Regarding `CCOC(=O)C1=C(C)NC(=S)NC1c1ccco1` (stereo unspecified), the melting point is 174 to 175 °C.

`Nc1nc(F)nc2c1ncn2C1OC(CO)C(O)C1O` (stereo unspecified) returned a melting point of 260 °C.

`Nc1nc(O)nc2[nH]cnc12`: the melting point was 300 °C.

As to `COc1ccc(C(=O)c2ccc(Cl)cc2)cc1OC`, the melting point stood at 109 °C.

Regarding `NC(Cc1ccc(F)cc1Cl)=NO`, the melting point lay in the range of 146 to 147 °C.

`BrCCCCCCCCCCCCCCBr` returned a melting point of 50.4 °C.

For `COC(=O)c1sccc1Oc1ccc(Cl)cc1[N+](=O)[O-]`, the melting point was in the range of 125 to 128 °C.

The compound `COC(=O)C(C)N(C(=O)c1ccco1)c1c(C)cccc1C` (stereo unspecified) had a melting point of 102 °C.

Take `O=C(Cc1ccccc1)C(=O)Cc1ccccc1`: the melting point amounted to 86 °C.

Regarding `O=C(O)c1ccnnc1`, the melting point was in the range of 237 to 240 °C.

For `CC1CCC(C(C)C)C(=O)C1` (single isomer, unassigned; (-)), the melting point is -6 °C.

The compound `O=C(O)C(Cl)CCl` (stereo unspecified) registered a melting point of 50 °C.

Regarding `CCCCCCCCOC(=O)CCCCCCCCC(=O)OCCCCCCCC`, the melting point is -67 °C.

With `COC(=O)c1ccc(S(=O)(=O)c2ccc(C(=O)OC)cc2)cc1`, the melting point lay in the range of 193 to 200 °C.

`Cc1c(F)cccc1[N+](=O)[O-]` gave a melting point of 7 °C.

`CC(=O)N1C(=O)[C@@](O)(c2coc3ccccc23)c2ccccc21` returned a melting point of 110 °C.

For the compound `CCCCCCCCCCCCCCCCCCOO`, the melting point came out at 49.5 °C.

With `CC(CCc1ccccc1)NC(C)C(O)c1cc(I)c(O)c(I)c1` (stereo unspecified), the melting point amounted to 212 °C.

For the compound `Cc1ccc(C(c2ccc(C)o2)c2cc(Cl)ccc2O)o1`, the melting point stood at 85 °C.

As to `CN=C1SC(CC(=O)O)C(=O)N1C` (stereo unspecified), the melting point is 157 to 159 °C.

Regarding `C=Cc1scnc1C`, the melting point was -15 °C.

The compound `CC12CC(=O)C3C(CCC4=CC(=O)CCC43C)C1CCC2=O` (stereo unspecified) returned a melting point of 222 °C.

`N#Cc1ccc2c(c1)N(CCCN1CCC(O)CC1)c1ccccc1S2` yielded a melting point of 116 °C.

Regarding `Cc1ccc(C(=O)O)c(N)c1`, the melting point lay within 160 to 161 °C.

With `Cc1cc(C(C)(C)C)c(O)c(C(C)(C)C)c1`, the melting point is 71 °C.

For `NS(=O)(=O)c1ccc(S(=O)(=O)CCCO)c(F)c1`, the melting point was 130 °C.

Compound `Clc1ccc(Oc2ccc(Cl)cc2)cc1` registered a melting point of 30 °C.

Compound `COC1=C(OC)C(C(COS(C)(=O)=O)OS(C)(=O)=O)OC1=O` (stereo unspecified) returned a melting point of 77 to 79 °C.

With `OC1C2COC(O2)C(O)C1O` (stereo unspecified), the melting point was 183 °C.

`COC(=O)c1ccc(C)cc1C` returned a melting point of -2 °C.

`O=C1NN(c2ccccc2)C(=O)C1=Cc1ccc(Cl)cc1` gave a melting point of 322 °C.

Take `COc1ccc(/N=N/c2sc(CC#N)nc2C)cc1`: the melting point came to 158 °C.

In turn, `CS(=O)(=O)Nc1ccc(C#N)cc1` registered a melting point of 194 °C.

As to `CCNc1nc(NC(C)C(C)C)nc(SC)n1` (stereo unspecified), the melting point was 65 °C.

For `NS(=O)(=O)c1cc2c(cc1Cl)CN(C1CCCCC1)C2=O`, the melting point was determined as 267 °C.

In turn, `CCOC(=O)N1CCC2(CC1)C(=O)N(CO)CN2c1ccccc1` returned a melting point of 134 to 139 °C.

Regarding `CCCC(O)(CCC)C1(C)CCC(C(=O)O)C(C)(C)O1` (stereo unspecified), the melting point lay in the range of 111 to 112 °C.

Consider `CC(CCC(=O)O)C1CCC2C3C(=O)CC4CCCCC4(C)C3CC(=O)C12C` (stereo unspecified), for which the melting point was found to be 176 °C.

Take `O=c1cc(-c2ccc(O)c(O)c2)oc2ccccc12`: the melting point was 250 °C.

The compound `N#C/C(=N\Nc1c(Br)cc(Br)cc1Br)c1nc2ccccc2[nH]1` came in with a melting point of 270 °C.

`O=C(O)c1cc(S(=O)(=O)F)c2ccccc2c1O` displayed a melting point of 300 °C.

The compound `Cc1ccncc1C=NNc1ccc([N+](=O)[O-])cc1[N+](=O)[O-]` registered a melting point of 156 °C.

For `Cc1ncc(S(=O)(=O)C(C)(C)C)c(N)n1`, the melting point lay within 163 to 166 °C.

Compound `O=C(O)C=Cc1ccccc1Br` showed a melting point of 215 to 216 °C.

`Cc1ccccc1NN=C1C(=O)CC(C)(C)CC1=O` showed a melting point of 109 °C.

Consider `COC(=O)c1ccc(C(N)=O)cc1`, for which the melting point was found to be 206 °C.

In turn, `c1ccc(CCCc2ccccc2)cc1` had a melting point of 6 °C.

Compound `Cc1nc(COc2ccc(C(N)=NO)cc2)cs1` displayed a melting point of 193 to 194 °C.

In turn, `CCOC(=O)c1c(-c2cccs2)csc1N` returned a melting point of 85 to 87 °C.

As for `O=C(Nc1ccccc1)c1cc(Cl)ccc1O`, the melting point worked out at 211 °C.

`CCOC(=O)c1c(NC(=S)Nc2ccc(Br)cc2)sc2c1CCCC2` showed a melting point of 204 to 205 °C.

In the case of `Clc1ccc2c(c1)oc1c(Cl)c(Cl)cc(Cl)c12`, the melting point is 190 °C.

As for `COc1cc(O)c2c(=O)c(-c3ccc(O)cc3)coc2c1`, the melting point is 240 °C.

In turn, `OCC1CCNCC1` came in with a melting point of 59 °C.

With `Cc1nc2scc(-c3ccccc3)c2c(=O)n1NC(=O)c1ccccc1Cl`, the melting point is 209 to 210 °C.

Regarding `O=C1OC(c2ccccc2)=N/C1=C\c1ccc(/C=C2/N=C(c3ccccc3)OC2=O)cc1`, the melting point came out at 271 °C.

Take `CNP(=O)(OC)Oc1ccc(C(C)(C)C)cc1Cl` (stereo unspecified): the melting point is 60 °C.

`O=C(O)C1CCN(C(=O)OCc2ccccc2)CC1` gave a melting point of 78 to 81 °C.

Regarding `C1=CC2=CC=C(O2)C2=CC=C(C=CC3=CC=C(O3)C3=CC=C1O3)O2`, the melting point lay within 270 to 271 °C.

`C/C=C/C1Nn2c(nnc2-c2ccc([N+](=O)[O-])cc2)S1` (stereo unspecified) came in with a melting point of 150 °C.

On to `CCOC(=O)NC(=O)Nn1c(S)nnc1C(F)(F)F`, for which the melting point came to 232 °C.

`CC(=CNNc1nc(C)cc(C)n1)c1cccnc1` gave a melting point of 147 to 150 °C.

For the compound `C/C(Cl)=C/C(=O)O`, the melting point was determined as 61 °C.

Compound `O=Cc1cc(Br)ccc1O` showed a melting point of 105 °C.

`O=C1OC2(c3cc(Cl)c(O)cc3Oc3cc(O)c(Cl)cc32)c2ccccc21`: the melting point stood at 280 °C.

With `Cc1[nH]c2ccc(C(=O)O)cc2c1C`, the melting point lay in the range of 239 to 242 °C.

`Cc1ccsc1` registered a melting point of -69 °C.

Compound `COc1ccc(C#N)c(OC(F)(F)F)c1` gave a melting point of 32 °C.

Consider `COc1ccccc1C1Nc2nc(C(F)(F)F)nn2C(N)=C1C#N` (stereo unspecified), for which the melting point was found to be 245 °C.

`CC(=O)C1C(=O)c2ccccc2CC1c1ccccc1` (stereo unspecified): the melting point came to 67 °C.
